Experimental data taken from patent publication US20250098673A1, “COMPOSITIONS, MEANS AND METHODS FOR A NOVEL INSECT REPELLENT” (priority 2019, published 2025).

Experiments:
Culex quinquefasciatus = experiment: Arm-in-cage mosquito repellency test on human subjects (Protection Time); assay type: in vivo; conditions: mean of 5 subjects; Sano data obtained at a different time (historical comparison)
Experimental: In an embodiment of this invention, the insect repellent effect of a 20% DHA solution was studied. These studies were carried out at Poseidon Sciences Insect Control Laboratory (Miagao, Iloilo, Philippines), a breeding facility for C. quinquefasciatus, for research and development. The insect repellency of a DHA solution, comprising 20% DHA dissolved in a 30% ethanol aqueous solution, was compared to that of a Placebo solution, comprising 30% ethanol in water, as a negative control solution. As a positive control, the repellency of DHA was also compared to that of a commercial Sano insect repellent, a plant based repellent, using a composition of 20% of citrepel 75 dissolved in water. The placebo and the 20% DHA solution were kept in a refrigerator until the day of use. The samples were removed from the refrigerator and kept at room temperature for 3 hours before the tests were undertaken.
The above-mentioned solutions were then tested on a total of 10 subjects (age 19 to 44 comprising a total of 6 women and 4 men), all in good health. Each subject had signed an Informed Consent Form. This study had been approved by Poseidon Sciences IRB (Institutional Review Board). […]
Following application of the tested solution to the arm of the subject, testing was carried out as follows: a research scientist recorded the time of insertion of the arm into the cage and observed mosquito landing. […]

[1] = cited from earlier work
[2] = test system: Whitefly (Bemisia tabaci); experiment: Study 1: pest control experiment in cauliflower compared to Mospilan; assay type: in vivo
Experimental: Whitefly (Bemisia tabaci), is a major pest, in many crops around the world. These pests are carriers of several virus diseases and are damaging the leaves and fruit with scratches and punch-and-suck activity. Furthermore, in cauliflower, excreting honeydew on the leaves and fruit, causes to mold development, which can disqualify the products for the market.
DHA was sprayed in two doses on cauliflower, for checking the effect on Whiteflies. These treatments were tested vs. a standard treatment (Mospilan) and a control treatment (not spraying): • DHA, 2.5% (aqueous solution) • DHA, 5% (aqueous solution) • Mospilan (Acetamiprid 200 g/L), 500 ml per hectare • Control (water spraying)
The experiment was implemented with 4 replicates for each treatment (randomly spread). Each replicate was 12 m long and 2 m width. Spraying volume was 40 L/Dunam. The solution for spraying was in a volume of 4 L.
Counting and statistics: Counting Whiteflies and Thrips was made on 20 leaves, selected randomly in each replicate. Variance analysis was made by Tukey-Kramer (α=0.05). Counting was performed every 7 days.

## O=C(CO)CO [DHA, Dihydroxyacetone]
Culex quinquefasciatus
  Protection Time, Mean: 45 min
[1]; SCCS report 2010
  carcinogenicity: non-carcinogenic
  irritancy: non-irritant
  skin sensitization or photo sensitization: did not cause skin sensitization or photo sensitization effects
[1]; application to skin
  systemic absorption: not systemically absorbed
[1]; concentrations of up to 10%, SCCS report 2010
  safety of DHA sprays applied to skin: safe to use
[2]; adults, significant
  reduction of mature Whitefly compared to control group: ~65%
[2]; young stage, trend
  reduction of young stage Whitefly (trend): ~40%
